Laboratory results: patent publication US20080025917A1, “Methods for modulating formation and progression of cellulite” (priority 2006, published 2008)

Tests used:
[1] = target: T1, TIF1β (Mus musculus, UniProt Q62318); experiment: HF-affinity resin binding / free-compound competition for TIF1β
T1 construct: endogenous in cells; host or cells: SV-MES cells (lysate)
From the text: The molecular mechanisms underlying the regulation of ECM by HF currently are not known. […] These proteins, TIF1β and Ruvbl2, are both transcriptional regulatory proteins. TIF1β is known to interact with transcription factors that regulate Type I collagen expression, providing the first molecular connection between HF and the regulation of an ECM gene. A brief description and data detailing the isolation and identification of HF binding proteins are provided below. […] This band was identified by tandem mass spectrometry as TIF1β. These HF binding proteins were isolated and identified by tandem mass spectrometry. Using this approach, the transcriptional co-repressor TIF1β (FIG. 4) was initially identified as an HF binding protein. A cDNA encoding TIF1β was also identified and used to confirm that TIF1β binds specifically to HF (FIG. 5). Cloned, tagged TIF1β was transfected into SV-MES cells and precipitated with HF-resin.

[2] = target: T2, RuvBl2 (Mus musculus, UniProt Q9WTM5); experiment: HF affinity purification / tandem mass spectrometry, RuvBl2; format: binding
T2 construct: endogenous in cells; host or cells: SV-MES cell lysate (inferred from the same approach described)
From the text: TIF1β is a member of a family of transcriptional co-repressors (Chang, et al., Mol Cell Biol, vol. 18: 5880-87 (1998); Hsu, et al. Embo J., vol. 20: 2273-85 (2001); Le Douarin, et al. J Steroid Biochem Mol Biol 65, 43-50 (1998)). TIF1β interacts with a variety of transcription factors, including nuclear receptors, to mediate regulation of chromatin modification (Chang, et al., Mol Cell Biol, vol. 18: 5880-87 (1998); Hsu, et al. Embo J., vol. 20: 2273-85 (2001); Nomura, et al. J Biol Chem 279, 16715-26 (2004)). TIF1β interacts with a number of transcription factors known to regulate the synthesis of Type I collagen, providing a direct link between HF, TIF1β and the transcription of extracellular matrix genes. […] Ruvbl2, also known as Reptin, ECP51, Tip48, and Tip49b, is, like TIF1β, known to function in transcriptional regulation and chromatin re-modeling (Kanemaki, et al. J Biol Chem 274, 22437-44 (1999)). The identification of halofuginone's intracellular effectors, and the binding sites for halofuginone in those effectors, provides additional approaches to targeting the deposition of sub-dermal ECM. New classes of small molecules can be designed to target intracellular effectors such as TIF1β and RuvBl2, broadening the range of potential therapeutic agents for the treatment of cellulite.

[3] = test system: NMuMg murine epithelial cells; experiment: TGFβ-induced myofibroblast formation, Western blot for smooth muscle actin; format: cell-based; conditions: 5 ng/ml TGFβ1, 72 hours, increasing doses
Description: NMuMg murine epithelial cells were induced to undergo transition to myofibroblasts by stimulation with 5 ng/ml TGFβ1. After 72 hours, myofibroblast differentiation was assessed by Western blot for Smooth muscle actin (SMA), a myofibroblast contractile protein. […] Thus, HF inhibited myofibroblasts formation in response to TGFβ.

[4] = test system: human primary dermal fibroblasts; experiment: Fibroblast-driven collagen disc contraction; format: cell-based; conditions: 100 nM, 72 hours
Description: Human primary dermal fibroblasts were seeded in a matrix of Type I collagen in the presence or absence of 5 ng/ml TGFβ or 100 nM HF. Collagen discs were released from attachment to the culture dish and allowed to undergo fibroblast-driven contraction for 72 hours. The area of the discs at time zero was 200 units.

[5] = test system: human primary dermal fibroblasts; experiment: Attachment and spreading of primary dermal fibroblasts on a Type I collagen matrix; format: cell-based
Description: Assay of HF effects on contractile behavior of dermal fibroblasts. Previous studies have established that HF can modulate fibrosis in vivo, and regulate ECM production by cells in vitro. The studies described herein provide a simple assay to test the effects of HF and its putative mediators on the behavior of cells likely to provide the basis for the structural features of cellulite—dermal fibroblasts and myofibroblasts. When human primary dermal fibroblasts are cultured in a matrix of Type I collagen, mimicking the interstitial matrix of the dermis and hypodermis, they attach to the substratum and spread, exerting contractile force on the surrounding interstitial matrix (FIG. 2A).

[6] = test system: Primary human dermal fibroblasts; format: cell-based; conditions: 100 nM, 5 ng/ml TGFβ1
Description: Primary human dermal fibroblasts were seeded in a matrix of Type I collagen with 5 ng/ml TGFβ1 in the presence or absence of 100 nM HF. FIG. 7 depicts the effect of the presence and absence of HF on the behavior of TGFβ-treated dermal fibroblasts.

[7] = cited from earlier work
[8] = in vitro; cited from earlier work

T1 sequence (Q62318 whole entry): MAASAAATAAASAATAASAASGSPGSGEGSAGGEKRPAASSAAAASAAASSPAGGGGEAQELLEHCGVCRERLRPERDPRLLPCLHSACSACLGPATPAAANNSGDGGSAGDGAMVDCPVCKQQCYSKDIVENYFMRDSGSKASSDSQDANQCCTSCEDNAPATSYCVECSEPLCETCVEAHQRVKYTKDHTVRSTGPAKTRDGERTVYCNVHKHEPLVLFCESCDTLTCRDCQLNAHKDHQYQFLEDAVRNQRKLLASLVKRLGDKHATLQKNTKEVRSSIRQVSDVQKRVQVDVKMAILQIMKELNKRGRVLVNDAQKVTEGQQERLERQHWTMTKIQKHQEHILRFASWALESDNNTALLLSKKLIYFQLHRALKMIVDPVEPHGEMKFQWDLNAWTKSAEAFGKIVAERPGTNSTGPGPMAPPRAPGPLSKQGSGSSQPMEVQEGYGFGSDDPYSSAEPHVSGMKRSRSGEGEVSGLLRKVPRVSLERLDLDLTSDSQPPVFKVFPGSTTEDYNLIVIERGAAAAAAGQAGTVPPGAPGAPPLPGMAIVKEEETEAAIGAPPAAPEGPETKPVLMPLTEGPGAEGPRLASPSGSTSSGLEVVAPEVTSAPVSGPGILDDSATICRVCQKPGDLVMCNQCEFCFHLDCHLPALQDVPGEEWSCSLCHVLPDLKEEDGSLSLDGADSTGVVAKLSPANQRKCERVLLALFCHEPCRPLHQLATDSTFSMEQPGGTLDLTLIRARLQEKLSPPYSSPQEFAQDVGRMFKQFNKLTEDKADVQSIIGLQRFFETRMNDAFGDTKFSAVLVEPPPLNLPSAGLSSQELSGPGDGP
T2 sequence (Q9WTM5 2-463 limits assumed): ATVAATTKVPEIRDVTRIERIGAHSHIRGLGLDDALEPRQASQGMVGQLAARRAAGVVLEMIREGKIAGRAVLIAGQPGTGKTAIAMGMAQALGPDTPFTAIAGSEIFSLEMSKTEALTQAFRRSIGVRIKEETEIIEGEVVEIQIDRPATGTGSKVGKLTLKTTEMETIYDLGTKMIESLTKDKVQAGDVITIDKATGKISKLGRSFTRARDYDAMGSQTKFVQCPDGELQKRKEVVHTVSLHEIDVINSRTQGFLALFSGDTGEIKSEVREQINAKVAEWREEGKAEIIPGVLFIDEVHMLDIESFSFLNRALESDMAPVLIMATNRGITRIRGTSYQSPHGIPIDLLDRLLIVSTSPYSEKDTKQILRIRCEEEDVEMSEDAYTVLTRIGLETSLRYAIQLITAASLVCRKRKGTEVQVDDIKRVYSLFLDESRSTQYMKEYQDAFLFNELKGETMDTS

Compound | competition by free compound for binding of TIF1β band to HF affinity resin ([1]; SV-MES cell lysates, excess free compound) | blocking of tagged TIF1β interaction with immobilized HF by pre-incubation ([1]; cloned, tagged TIF1β transfected into SV-MES cells, precipitated with HF-resin) | binding of RuvBl2 to HF [2] | smooth muscle actin (SMA) induction [3] | contractile activity of myofibroblasts in a collagen matrix (disc area) [4] | ability of fibroblasts to attach and spread on collagen matrix ([5]; 200 nM, 24 hrs) | ability of fibroblasts to attach and spread on collagen matrix ([5]; as little as 30 nM) | fibroblast extensions and attachments to the matrix [6] | excess dermal ECM deposition ([7]; animal models of wound healing and fibrotic disease, intra-peritoneally, in food or applied locally) | toxicity in vivo ([7]; in vivo) | concentration at which it acts as an inhibitor of fibrosis [8] [nM]
O=C(CC1NCCCC1O)Cn1cnc2cc(Br)c(Cl)cc2c1=O (stereo not drawn) [HF, 7-bromo-6-chloro-3-[3-(3-hydroxy-2-piperidinyl)-2-oxopropyl]-4(3H)-quinazolinone] | specifically competed | blocked TIF1β interaction with immobilized HF | second HF binding protein | eliminated SMA induction | inhibited the contractile activity | completely fail to attach and spread | Identical results | no extensions or attachments to the matrix or to one another | reduces excess dermal ECM deposition | low-toxicity | 20 to 200
CC(C)(C)OC(=O)N1CCC[C@H](O)[C@H]1CC(=O)Cn1cnc2cc(Br)c(Cl)cc2c1=O [MAZ1310] | – | – | – | – | – | inactive | – | – | – | – | –
